Where a name gives a salt, the structure may show the parent alone. Read-outs that look alike come from different tables or passages of the source. Peptide text beside a SMILES is read from it.
What was measured:
[1] = system: NCI-H292 lung cancer cells; assay: FDA drug screening, complete media vs cholesterol-free media with simvastatin (TABLE 2); type: cell-based, human
[2] = system: NCI-H292 lung cancer cells; assay: FDA drug screening, complete media vs cholesterol-free media without statin (TABLE 1); type: cell-based, human
[3] = NCI-H292 cells, FDA library drug in cholesterol-free media with simvastatin 0.04 μM
[4] = NCI-H292 cells, FDA library drug in complete media
[5] = complete media vs cholesterol-free media + simvastatin (0.04 μM), >0 enhanced anti-cancer activity, about 0 neutral, <0 antagonist
[6] = Complete minus Cholesterol-free, >0 enhanced anti-cancer activity, about 0 neutral, <0 antagonist
[7] = NCI-H292 cells, cholesterol-free media without statin, FDA drug library screen
[8] = NCI-H292 cells, complete media, FDA drug library screen
[9] = NCI-H292 cells, drug in cholesterol-free media with simvastatin 0.04 μM
[10] = NCI-H292 cells, drug in complete media
[11] = complete media minus cholesterol-free media + simvastatin (0.04 μM), >0 enhanced anti-cancer activity, about 0 neutral, <0 antagonist
[12] = complete media vs cholesterol-free media + simvastatin (0.04 μM), […]
[13] = Complete minus Cholesterol-free, […]
[14] = NCI-H292 cells, cholesterol-free media without statin
[15] = NCI-H292 cells, cholesterol-free media with simvastatin 0.04 μM, cell growth value in FDA drug screen
[16] = NCI-H292 cells, complete media, cell growth value in FDA drug screen
[17] = complete media minus cholesterol-free media + simvastatin, >0 enhanced anti-cancer activity, about 0 neutral, <0 antagonist
[18] = complete vs cholesterol-free media, greater than 0 enhanced anti-cancer activity, about 0 neutral, below 0 antagonists
[19] = NCI-H292 cells, FDA drug library screen, cholesterol-free media without statin
[20] = NCI-H292 cells, FDA drug library screen, complete media
[21] = NCI-H292 cells, FDA drug library screen, cholesterol-free media with simvastatin 0.04 μM
[22] = complete vs cholesterol-free media, >0 enhanced anti-cancer activity, about 0 neutral, <0 antagonist
[23] = Complete minus Cholesterol-free, greater than 0 enhanced anti-cancer activity, about 0 neutral, below 0 antagonists
[24] = NCI-H292 cells in cholesterol-free media without statin
[25] = NCI-H292 cells in complete media
[26] = Complete minus Cholesterol-free, greater than 0 enhanced anti-cancer activity, about 0 neutral, below 0 antagonist

Compound: CO/N=C(\C(=O)N[C@@H]1C(=O)N2C(C(=O)[O-])=C(C[n+]3ccn4ncccc43)CS[C@H]12)c1nsc(N)n1 [Cefozopran (hydrochloride)]
- Cholesterol-free media + simvastatin (0.04 μM) [1, 3]: 1.89
- Complete Media [1, 4]: 1.537
- Difference [1, 5]: −0.35
- Difference [2, 6]: −0.04
- Cholesterol-free [2, 7]: 1.014
- Complete [2, 8]: 0.9759

Compound: CC1(O)CCC(C(C)(C)O)CC1 (stereo not shown) [Terpin (hydrate)]
- Cholesterol-free media + simvastatin (0.04 μM) [1, 9]: 1.474
- Complete Media [1, 10]: 1.21
- Difference [1, 5]: −0.26
- Difference [2, 6]: 0.06
- Cholesterol-free [2, 7]: 0.8684
- Complete [2, 8]: 0.9288

Compound: Cc1nccn1CC1CCc2c(c3ccccc3n2C)C1=O (stereo not shown) [Ondansetron]
- Cholesterol-free media + simvastatin (0.04 μM) ([1]; NCI-H292 cells, cholesterol-free media with simvastatin 0.04 μM, FDA drug library screen (TABLE 2)): 1.019
- Complete Media ([1]; NCI-H292 cells, complete media, FDA drug library screen (TABLE 2)): 0.948
- Difference [1, 11]: −0.07
- Difference [2, 6]: −0.05
- Cholesterol-free [2, 7]: 1.168
- Complete [2, 8]: 1.123

Compound: Chloramphenicol succinate (sodium)
- Cholesterol-free media + simvastatin (0.04 μM) [1]: 0.9173
- Complete Media [1]: 0.8083
- Difference [1]: −0.11
- Cholesterol-free [2]: 0.9119
- Complete [2]: 0.8447
- Difference [2]: −0.07

Compound: Eliglustat (hemitartrate)
- Cholesterol-free media + simvastatin (0.04 μM) [1, 9]: 0.9268
- Complete Media [1, 10]: 0.7576
- Difference [1, 12]: −0.17
- Difference [2, 13]: −0.24
- Cholesterol-free [2, 14]: 0.8345
- Complete ([2]; NCI-H292 cells, complete media): 0.5954

Compound: CC(C)(Oc1ccc(C(=O)c2ccc(Cl)cc2)cc1)C(=O)O [Fenofibric acid]
- Cholesterol-free media + simvastatin (0.04 μM) [1, 15]: 0.9473
- Complete Media [1, 16]: 1.061
- Difference [1, 17]: 0.11
- Cholesterol-free [2, 14]: 1.435
- Complete ([2]; NCI-H292 cells, complete media): 1.058
- Difference [2, 18]: −0.38

Compound: CCCc1nc2c(C)cc(-c3nc4ccccc4n3C)cc2n1Cc1ccc(-c2ccccc2C(=O)O)cc1 [Telmisartan]
- Cholesterol-free media + simvastatin (0.04 μM) [1, 15]: 0.8657
- Complete Media [1, 16]: 0.906
- Difference [1, 17]: 0.04
- Difference [2, 6]: −0.06
- Cholesterol-free [2, 7]: 1.319
- Complete [2, 8]: 1.255

Compound: Nc1ccc(C(=O)[O-])c(O)c1.O.O.[Na+] [Sodium 4-aminosalicylate (dihydrate)]
- Cholesterol-free media + simvastatin (0.04 μM) [1, 3]: 1.473
- Complete Media [1, 4]: 1.188
- Difference [1, 12]: −0.29
- Difference [2, 13]: −0.15
- Cholesterol-free [2, 19]: 1.093
- Complete [2, 20]: 0.9477

Compound: Mosapride (citrate)
- Cholesterol-free media + simvastatin (0.04 μM) [1, 21]: 0.963
- Complete Media [1, 20]: 0.8629
- Difference [1, 5]: −0.10
- Cholesterol-free [2, 7]: 0.9953
- Complete [2, 8]: 1.241
- Difference [2, 22]: 0.25

Compound: CCN(CC)C(=O)c1ccc(O)c(OC)c1 [Etamivan]
- Cholesterol-free media + simvastatin (0.04 μM) [1, 3]: 1.227
- Complete Media [1, 4]: 0.9141
- Difference [1, 5]: −0.31
- Difference [2, 23]: −0.50
- Cholesterol-free [2, 24]: 1.483
- Complete [2, 25]: 0.9848

Compound: CCOC(=O)c1c(N)sc2c1CCN(Cc1ccccc1)C2 [Tinoridine hydrochloride]
- Cholesterol-free media + simvastatin (0.04 μM) [1, 15]: 1.034
- Complete Media [1, 16]: 1.059
- Difference [1, 17]: 0.03
- Difference [2, 26]: −0.11
- Cholesterol-free [2, 19]: 1.153
- Complete [2, 20]: 1.039

Compound: N=C1CCCN1Cc1nc(O)nc(O)c1Cl [Tipiracil (hydrochloride)]
- Cholesterol-free media + simvastatin (0.04 μM) [1, 21]: 0.8843
- Complete Media [1, 20]: 1.03
- Difference [1, 17]: 0.15
- Difference [2, 6]: 0.03
- Cholesterol-free [2, 7]: 0.8754
- Complete [2, 8]: 0.9052

Compound: Hydrocortisone hemisuccinate
- Cholesterol-free media + simvastatin (0.04 μM) [1, 15]: 0.9423
- Complete Media [1, 16]: 1.019
- Difference [1, 17]: 0.08
- Difference [2, 23]: −0.57
- Complete [2, 25]: 0.5102

Compound: Cn1c(=O)cc(N2CCC[C@@H](N)C2)n(Cc2ccccc2C#N)c1=O.O=C(O)c1ccccc1 [Alogliptin (Benzoate)]
- Cholesterol-free media + simvastatin (0.04 μM) [1, 21]: 1.087
- Complete Media [1, 20]: 0.9402
- Difference [1, 5]: −0.15
- Difference [2, 26]: −0.08
- Cholesterol-free [2, 19]: 0.8854
- Complete [2, 20]: 0.8074

Compound: CC(C)(C)NC(=O)N[C@H](C(=O)N1C[C@H]2[C@@H]([C@H]1C(=O)NC(CC1CCC1)C(=O)C(N)=O)C2(C)C)C(C)(C)C (stereo partly shown) [Boceprevir]
- Cholesterol-free media + simvastatin (0.04 μM) [1, 21]: 1.494
- Complete Media [1, 20]: 1.414
- Difference [1, 5]: −0.08
- Difference [2, 6]: −0.30
- Cholesterol-free [2, 14]: 1.3
- Complete ([2]; NCI-H292 cells, complete media): 1.001

Compound: Tamoxifen (Citrate)
- Cholesterol-free media + simvastatin (0.04 μM) [1]: 0.9205
- Complete Media [1]: 0.7671
- Difference [1]: −0.15
- Cholesterol-free [2]: 0.4962
- Complete [2]: 0.576
- Difference [2]: 0.08

Compound: CC(Cc1cccc(C(F)(F)F)c1)NCCOC(=O)c1ccccc1 (stereo not shown) [Benfluorex (hydrochloride)]
- Cholesterol-free media + simvastatin (0.04 μM) [1, 9]: 1.041
- Complete Media [1, 10]: 0.8151
- Difference [1, 5]: −0.23
- Cholesterol-free [2, 14]: 1.106
- Complete ([2]; NCI-H292 cells, complete media): 0.6694
- Difference [2, 18]: −0.44

Compound: C#C[C@]1(O)CC[C@H]2[C@@H]3CCc4cc(O)ccc4[C@H]3CC[C@@]21C [Ethynyl Estradiol]
- Cholesterol-free media + simvastatin (0.04 μM) [1, 9]: 1.254
- Complete Media [1, 10]: 1.055
- Difference [1, 5]: −0.20
- Cholesterol-free [2, 7]: 0.8735
- Complete [2, 8]: 1.393
- Difference [2, 22]: 0.52

Compound: COC1=CC(=O)C[C@@H](C)[C@]12Oc1c(Cl)c(OC)cc(OC)c1C2=O [Griseofulvin]
- Cholesterol-free media + simvastatin (0.04 μM) [1, 9]: 1.385
- Complete Media [1, 10]: 1.224
- Difference [1, 5]: −0.16
- Difference [2, 23]: −0.63
- Cholesterol-free [2, 24]: 1.326
- Complete [2, 25]: 0.6963

Compound: COC(=O)[C@H](Cc1ccccc1)NC(=O)[C@@H](N)CC(=O)O [Aspartame] (HELM PEPTIDE1{D.F.[CO[*:1]]}$$$$V2.0)
- Cholesterol-free media + simvastatin (0.04 μM) [1, 9]: 1.165
- Complete Media [1, 10]: 0.9998
- Difference [1, 5]: −0.17
- Difference [2, 6]: −0.06
- Cholesterol-free [2, 7]: 1.044
- Complete [2, 8]: 0.9887

Compound: CC(=O)CC(c1ccc([N+](=O)[O-])cc1)c1c(O)c2ccccc2oc1=O (stereo not shown) [Acenocoumarol]
- Cholesterol-free media + simvastatin (0.04 μM) [1, 21]: 2.014
- Difference [1, 11]: −0.90
- Difference [2, 6]: −0.28
- Cholesterol-free [2, 14]: 1.889
- Complete ([2]; NCI-H292 cells, complete media): 1.605

Compound: CCCC(=O)O[C@]1(C(=O)COC(C)=O)CC[C@H]2[C@@H]3C[C@H](F)C4=CC(=O)C=C[C@]4(C)[C@@]3(F)[C@@H](O)C[C@@]21C [Difluprednate]
- Cholesterol-free media + simvastatin (0.04 μM) [1, 15]: 1.197
- Complete Media [1, 16]: 1.264
- Difference [1, 17]: 0.07
- Difference [2, 6]: −0.21
- Cholesterol-free [2, 14]: 0.9273
- Complete ([2]; NCI-H292 cells, complete media): 0.7168

Compound: O=c1[nH]c(=O)n(C2CCCO2)cc1F (stereo not shown) [Tegafur]
- Cholesterol-free media + simvastatin (0.04 μM) [1, 21]: 1.002
- Complete Media [1, 20]: 1.263
- Difference [1, 17]: 0.26
- Difference [2, 6]: −0.25
- Cholesterol-free [2, 14]: 0.9682
- Complete ([2]; NCI-H292 cells, complete media): 0.7137
